Reference: US6737383B1, “Herbicidal oxadiazolidines” (priority 1999, dated 2004)

How the values were obtained:
crabgrass = assay: Test B pre/postemergence crabgrass; assay type: in vivo, Digitaria sanguinalis
How it was run: (§1)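 Test chemicals in a non-phytotoxic solvent mixture with surfactant were sprayed preemergence onto planted seeds and postemergence onto plants 2 to 18 cm tall (1- to 4-leaf stage). After twelve to sixteen days in a greenhouse, injury was visually rated against untreated controls from 0 (no effect) to 10 (complete control).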

giant foxtail = assay: Test B pre/postemergence giant foxtail; assay type: in vivo, Setaria faberii
How it was run: as §1

corn = assay: Test B pre/postemergence corn; assay type: in vivo, Zea mays
How it was run: as §1

purple nutsedge = assay: Test B pre/postemergence purple nutsedge; assay type: in vivo, Cyperus rotundus
How it was run: as §1

smallflower flatsedge = assay: Test B flood test smallflower flatsedge; assay type: in vivo, Cyperus difformis
How it was run: (§2)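 Read-out is a visual response score from 0 (no effect) to 10 (complete control), assigned by comparison with untreated controls. Treatment was applied at the 2-leaf stage, and plants stayed in the greenhouse for twelve to sixteen days before scoring.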

rice = assay: Test B flood test rice; assay type: in vivo, Oryza sativa
How it was run: as §2

bamyardgrass = assay: Test B flood test barnyardgrass; assay type: in vivo, Echinochloa crus-galli
How it was run: as §2

wheat = assay: Test B pre/postemergence wheat; assay type: in vivo, Triticum aestivum
How it was run: as §1

velvetleaf = assay: Test B pre/postemergence velvetleaf; assay type: in vivo, Abutilon theophrasti
How it was run: as §1

blackgrass = assay: Test B pre/postemergence blackgrass; assay type: in vivo, Alopecurus myosuroides
How it was run: as §1

surinam grass = assay: Test B pre/postemergence surinam grass; assay type: in vivo, Brachiaria decumbens
How it was run: as §1

cocklebur = assay: Test B pre/postemergence cocklebur; assay type: in vivo, Xanthium strumarium
How it was run: as §1

morningglory = assay: Test B pre/postemergence morningglory; assay type: in vivo, Ipomoea hederacea
How it was run: as §1

bedstraw = assay: Test B pre/postemergence bedstraw; assay type: in vivo, Galium aparine
How it was run: as §1

wild oat = assay: Test B pre/postemergence wild oat; assay type: in vivo, Avena fatua
How it was run: as §1

duck salad = assay: Test B flood test duck salad; assay type: in vivo, Heteranthera limosa
How it was run: as §2

[1] = Postemergence, Rate 62 g/ha, scale 0 to 10, 0 is no effect, 10 is complete control
[2] = Postemergence, Rate 250 g/ha, scale 0 to 10, 0 no effect, 10 complete control
[3] = Preemergence, Rate 62 g/ha, scale 0 to 10 (0 no effect, 10 complete control)
[4] = Preemergence, Rate 125 g/ha, scale 0 to 10 (0 no effect, 10 complete control)
[5] = Preemergence, Rate 250 g/ha, scale of 0 to 10 where 0 is no effect and 10 is complete control
[6] = Preemergence, Rate 500 g/ha, scale 0 (no effect) to 10 (complete control)
[7] = Rate 125 g/ha, Postemergence, scale 0 to 10, 0 no effect, 10 complete control
[8] = Rate 500 g/ha, Postemergence, scale 0 to 10, 0 no effect, 10 complete control
[9] = Rate 125 g/ha, Postemergence section (flood test species), scale 0 to 10, 0 no effect, 10 complete control
[10] = Rate 500 g/ha, listed under Postemergence (flood test species), scale 0 to 10, 0 no effect, 10 complete control
[11] = flood test, listed under Postemergence, Rate 250 g/ha, scale 0 to 10, 0 no effect, 10 complete control

Structure (SMILES): CCN(C(=O)n1oc(=O)n(Cc2cccs2)c1=O)C1CCCCC1 [Compound 82]
- Crabgrass plant response rating (crabgrass; [1]): 0
- Crabgrass plant response rating (crabgrass; [2]): 0
- Crabgrass plant response rating (crabgrass; [3]): 0
- Plant response rating, Crabgrass (crabgrass; [4]): 0
- Plant response rating, Crabgrass (crabgrass; [5]): 0
- Crabgrass plant response rating (crabgrass; [6]): 0
- Crabgrass plant response rating (crabgrass; [7]): 0
- Crabgrass plant response rating (crabgrass; [8]): 0
- Giant foxtail plant response rating (giant foxtail; [1]): 0
- Giant foxtail plant response rating (giant foxtail; [2]): 0
- Giant foxtail plant response rating (giant foxtail; [3]): 0
- Plant response rating, Giant foxtail (giant foxtail; [4]): 0
- Plant response rating, Giant foxtail (giant foxtail; [5]): 0
- Giant foxtail plant response rating (giant foxtail; [6]): 0
- Giant foxtail plant response rating (giant foxtail; [7]): 0
- Giant foxtail plant response rating (giant foxtail; [8]): 0
- Corn plant response rating (corn; [1]): 0
- Corn plant response rating (corn; [2]): 0
- Corn plant response rating (corn; [3]): 0
- Plant response rating, Corn (corn; [4]): 0
- Plant response rating, Corn (corn; [5]): 0
- Corn plant response rating (corn; [6]): 0
- Corn plant response rating (corn; [7]): 0
- Corn plant response rating (corn; [8]): 0
- Nutsedge plant response rating (purple nutsedge; [1]): 0
- Nutsedge plant response rating (purple nutsedge; [2]): 0
- Nutsedge plant response rating (purple nutsedge; [3]): 0
- Plant response rating, Nutsedge (purple nutsedge; [4]): 0
- Plant response rating, Nutsedge (purple nutsedge; [5]): 0
- Nutsedge plant response rating (purple nutsedge; [6]): 0
- Nutsedge plant response rating (purple nutsedge; [7]): 0
- Nutsedge plant response rating (purple nutsedge; [8]): 0
- S. Flatsedge plant response rating (smallflower flatsedge; [1]): 0
- S. Flatsedge plant response rating (smallflower flatsedge; [9]): 0
- S. Flatsedge plant response rating (smallflower flatsedge; [10]): 0
- S. Flatsedge plant response rating (smallflower flatsedge; [11]): 0
- Rice plant response rating (rice; [1]): 0
- Rice plant response rating (rice; [9]): 0
- Rice plant response rating (rice; [10]): 0
- Rice plant response rating (rice; [11]): 0
- Barnyardgrass plant response rating (bamyardgrass; [1]): 0
- Barnyardgrass plant response rating (bamyardgrass; [9]): 0
- Barnyardgrass plant response rating (bamyardgrass; [10]): 0
- Barnyardgrass plant response rating (bamyardgrass; [11]): 0
- Wheat plant response rating (wheat; [1]): 0
- Wheat plant response rating (wheat; [2]): 0
- Wheat plant response rating (wheat; [3]): 0
- Plant response rating, Wheat (wheat; [4]): 0
- Plant response rating, Wheat (wheat; [5]): 0
- Wheat plant response rating (wheat; [6]): 0
- Wheat plant response rating (wheat; [7]): 0
- Wheat plant response rating (wheat; [8]): 0
- Velvetleaf plant response rating (velvetleaf; [1]): 0
- Velvetleaf plant response rating (velvetleaf; [2]): 0
- Velvetleaf plant response rating (velvetleaf; [3]): 0
- Plant response rating, Velvetleaf (velvetleaf; [4]): 0
- Plant response rating, Velvetleaf (velvetleaf; [5]): 0
- Velvetleaf plant response rating (velvetleaf; [6]): 0
- Velvetleaf plant response rating (velvetleaf; [7]): 0
- Velvetleaf plant response rating (velvetleaf; [8]): 0
- Blackgrass plant response rating (blackgrass; [1]): 0
- Blackgrass plant response rating (blackgrass; [2]): 0
- Blackgrass plant response rating (blackgrass; [3]): 0
- Plant response rating, Blackgrass (blackgrass; [4]): 0
- Plant response rating, Blackgrass (blackgrass; [5]): 0
- Blackgrass plant response rating (blackgrass; [6]): 0
- Blackgrass plant response rating (blackgrass; [7]): 0
- Blackgrass plant response rating (blackgrass; [8]): 3
- B. signalgrass plant response rating (surinam grass; [1]): 0
- B. signalgrass plant response rating (surinam grass; [2]): 0
- B. signalgrass plant response rating (surinam grass; [3]): 0
- Plant response rating, B. signalgrass (surinam grass; [4]): 0
- Plant response rating, B. signalgrass (surinam grass; [5]): 0
- B. signalgrass plant response rating (surinam grass; [6]): 0
- B. signalgrass plant response rating (surinam grass; [7]): 0
- B. signalgrass plant response rating (surinam grass; Rate 500 g/ha, Postemergence, scale of 0 to 10 where 0 is no effect and 10 is complete control): 0
- Cocklebur plant response rating (cocklebur; [1]): 0
- Cocklebur plant response rating (cocklebur; [2]): 0
- Cocklebur plant response rating (cocklebur; [3]): 0
- Plant response rating, Cocklebur (cocklebur; [4]): 0
- Plant response rating, Cocklebur (cocklebur; [5]): 0
- Cocklebur plant response rating (cocklebur; [6]): 0
- Cocklebur plant response rating (cocklebur; [7]): 0
- Cocklebur plant response rating (cocklebur; [8]): 0
- Morningglory plant response rating (morningglory; [1]): 4
- Morningglory plant response rating (morningglory; [2]): 10
- Morningglory plant response rating (morningglory; [3]): 0
- Plant response rating, Morningglory (morningglory; [4]): 0
- Plant response rating, Morningglory (morningglory; [5]): 0
- Morningglory plant response rating (morningglory; [6]): 0
- Morningglory plant response rating (morningglory; [7]): 7
- Morningglory plant response rating (morningglory; [8]): 10
- Bedstraw plant response rating (bedstraw; [1]): 0
- Bedstraw plant response rating (bedstraw; [2]): 0
- Bedstraw plant response rating (bedstraw; [3]): 0
- Plant response rating, Bedstraw (bedstraw; [4]): 0
- Plant response rating, Bedstraw (bedstraw; [5]): 0
- Bedstraw plant response rating (bedstraw; [6]): 0
- Bedstraw plant response rating (bedstraw; [7]): 0
- Bedstraw plant response rating (bedstraw; [8]): 1
- Wild oats plant response rating (wild oat; [1]): 0
- Wild oats plant response rating (wild oat; [2]): 0
- Wild oats plant response rating (wild oat; [3]): 0
- Plant response rating, Wild oats (wild oat; [4]): 0
- Plant response rating, Wild oats (wild oat; [5]): 0
- Wild oats plant response rating (wild oat; [6]): 0
- Wild oats plant response rating (wild oat; [7]): 0
- Wild oats plant response rating (wild oat; [8]): 0
- Ducksalad plant response rating (duck salad; [1]): 0
- Ducksalad plant response rating (duck salad; [9]): 0
- Ducksalad plant response rating (duck salad; [10]): 0
- Ducksalad plant response rating (duck salad; [11]): 0
